Where two headings read alike, the source gives them in different places.
Legend:
hCA I = target: T1, hCA I (Homo sapiens, UniProt P00915); assay type: biochemical
T1 construct: made in house

hCA II = target: T2, hCA II (Homo sapiens, UniProt P00918); assay type: biochemical
T2 construct: made in house

hCA XII [1] = target: T3, hCA XII (Homo sapiens, UniProt O43570); assay: biochemical; settings: stopped flow, 6 h preincubation, mean of three assays
hCA IX = target: T4, hCA IX (Homo sapiens, UniProt Q16790); assay type: biochemical; settings: for Ki: stopped flow, 6 h preincubation, mean of three assays
T4 construct: made in house

HeLa cells = assay: MTT cytotoxic assay in cancer HeLa cells; assay type: cell-based; settings: Homo sapiens, read-out: IC50 (concentration of compound that reduces the cell viability to 50%)
Experimental: Human carcinoma HeLa cell line was obtained from the American Type Culture Collection (ATCC, Rockville, MD). Cells were grown in Dulbecco’s modified Eagle’s medium (DMEM) with high glucose, supplemented with 10% foetal calf serum (FCS), penicillin (100 units/mL)–streptomycin (100 μg/mL), and 2 mM L-glutamine in a 5% CO2 incubator at 37 °C. Subcultures of the HeLa cells were grown in T-75 culture flasks and passaged with a trypsin-EDTA solution. Cell culture materials were purchased from Invitrogen (Milan, Italy).
The in vitro cytotoxic effect of coumarins 5, 9–12, 15 was evaluated in cancer HeLa cells by the MTT (3-(4,5-dimethylthiazol-2-yl)-2,5-diphenyltetrazolium bromide) reduction assay. Cancer cells were seeded in 96-well plates (density of 3 × 10^4 cells/mL) in 100 μL of medium and cultured for 48 h (80% of cell confluence). Cells were subsequently incubated for 48 h with various concentrations (0.1–100 μM, dissolved in DMSO) of coumarins in culture medium (treated cells). Treated cells were compared for viability to untreated cells (control cells) and vehicle-treated cells (incubated for 48 h with an equivalent volume of DMSO; the maximal final concentration was 1%). After the cell medium removing and washing, cells were subjected to the MTT test[35]. After incubation (3 h), colour development was measured at 570 nm with an Infinite 200 auto microplate reader (Infinite 200, Tecan, Austria); the absorbance is proportional to the number of viable cells. Two independent experiments were performed.

hCA XII [2] = target: T3, hCA XII
4T1 cells = settings: encapsulated in nanoliposomes vs free compound; cited from earlier work
[3] = stopped flow, 6 h preincubation, mean of three assays, read-out: Ki hCA I
[4] = stopped flow, 6 h preincubation, mean of three assays, read-out: Ki hCA II

T3 sequence (O43570 25-354): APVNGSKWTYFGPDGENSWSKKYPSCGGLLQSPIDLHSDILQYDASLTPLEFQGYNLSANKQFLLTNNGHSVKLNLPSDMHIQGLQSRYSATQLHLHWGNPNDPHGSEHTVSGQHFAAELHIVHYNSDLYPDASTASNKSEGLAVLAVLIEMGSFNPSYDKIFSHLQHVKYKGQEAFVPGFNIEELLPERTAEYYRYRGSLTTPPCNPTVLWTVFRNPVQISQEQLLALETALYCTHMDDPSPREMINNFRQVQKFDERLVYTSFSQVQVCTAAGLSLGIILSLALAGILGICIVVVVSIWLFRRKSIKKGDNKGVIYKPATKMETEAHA
T1 sequence (P00915 whole entry): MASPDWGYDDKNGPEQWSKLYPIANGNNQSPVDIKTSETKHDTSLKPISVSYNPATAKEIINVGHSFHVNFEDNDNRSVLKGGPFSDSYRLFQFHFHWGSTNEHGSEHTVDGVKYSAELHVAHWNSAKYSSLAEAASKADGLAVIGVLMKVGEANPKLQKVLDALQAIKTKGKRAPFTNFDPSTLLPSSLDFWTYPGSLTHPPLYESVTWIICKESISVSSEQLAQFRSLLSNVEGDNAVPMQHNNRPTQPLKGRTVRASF

Row | Ki ratio XII/IX (selectivity index hCA IX over hCA XII) (hCA IX) | Structure (SMILES) | Ki (hCA I; [3]) [nM] | Ki (hCA II; [4]) [nM] | Ki (hCA XII [1]) [nM] | Ki (hCA IX) [nM] | IC50 (HeLa cells; HeLa, 48 h) [nM] | Ki (hCA I) [nM] | Ki (hCA II) [nM] | IC50 (HeLa cells; HeLa cells, MTT, measured at 48 h, normoxic) [nM] | Ki ratio IX/XII (hCA XII [2]; selectivity for hCA XII) | change of antiproliferative effect against 4T1 cells when encapsulated in nanoliposomes (4T1 cells) | Ki ratio I/XII (hCA XII [2]; selectivity over off-target CA I/II)
1 |  | COc1c2ccoc2cc2oc(=O)ccc12 [Compound 1, begapten] | > 10000 | > 10000 | 855 | 1950 |  |  |  |  |  |  | 
2 |  | COc1c2occc2cc2ccc(=O)oc12 [Compound 2, xanthotoxin] | > 10000 | > 10000 | 876 | 195 |  |  |  |  |  |  | 
3 |  | COc1c2ccoc2c(OC)c2oc(=O)ccc12 [Compound 3, isopimpinellin] | > 10000 | > 10000 | 590 | 160 |  |  |  |  |  |  | 
4 |  | C/C(=C\COc1c2occc2cc2ccc(=O)oc12)CO [Compound 4, E-trichoclin] | > 10000 | > 10000 | 550 | 2340 |  |  |  |  |  |  | 
5 |  | COc1c2ccoc2c(OC/C=C(\C)CO)c2oc(=O)ccc12 [Compound 5, E-5-methoxy-trichoclin] | > 10000 | > 10000 | 63.5 | 1500 | > 100000 |  |  |  |  |  | 
6 |  | CC(C)=CCOc1c2occc2cc2ccc(=O)oc12 [Compound 6, imperatorin] | > 10000 | > 10000 | 833 | 221 |  |  |  |  |  |  | 
7 |  | COc1c2ccoc2c(OCC=C(C)C)c2oc(=O)ccc12 [Compound 7, phellopterin] | > 10000 | > 10000 | 787 | 202 |  |  |  |  |  |  | 
8 |  | CC1(C)O[C@@H]1COc1c2occc2cc2ccc(=O)oc12 [Compound 8, heraclenin] |  |  |  | 162 |  | > 10000 | > 10000 |  |  |  | 
9 |  | CC(C)(O)[C@H](O)COc1c2occc2cc2ccc(=O)oc12 [Compound 9, (-)-heraclenol] | > 10000 | > 10000 | 814 | 27.5 | > 100000 |  |  |  |  |  | 
10 | > 52 | CC(=O)O[C@@H](COc1c2occc2cc2ccc(=O)oc12)C(C)(C)O [Compound 10, (+)-heraclenol acetate] | > 10000 | > 10000 | > 10000 | 192 |  |  |  | > 100000 |  |  | 
11 |  | COc1cc2ccc(=O)oc2c2c1O[C@H](C(C)(C)O)C2 [Compound 11, Magydarin] | > 10000 | > 10000 | 623 | 151 | > 100000 |  |  |  |  |  | 
12 |  | COc1ccc2ccc(=O)oc2c1CC=C(C)C [Compound 12, osthol] | > 10000 | > 10000 | 74.5 | 2470 | 98000 |  |  |  |  |  | 
13 | > 5 | COc1ccc2ccc(=O)oc2c1C[C@@H]1OC1(C)C [Compound 13, meranzin] | > 10000 | > 10000 | > 10000 | 1890 |  |  |  |  |  |  | 
14 |  | COc1ccc2ccc(=O)oc2c1C[C@H](OC(C)=O)C(C)(C)O [Compound 14, 2′-acetoxy-3′-hydroxy-osthol] | > 10000 | > 10000 | 291 | > 10000 |  |  |  |  | > 34 |  | 
15 |  | CC(C)=CCC/C(C)=C/CC/C(C)=C/COc1ccc2ccc(=O)oc2c1 [Compound 15, umbelliprenin] | > 10000 | > 10000 | 5.8 | 266 | 75000 |  |  |  |  | increased by five folds | > 1724
